Among the data in US8962637B2, “Bicyclic compounds and their uses as dual c-SRC/JAK inhibitors” (Debiopharm S.A., priority 2010, dated 2015) are IC50, EC50 and inhibition values, retold here.

A value given as a limit tells only on which side of the number the result lay.

One assay addresses c-Src (Homo sapiens (Human), UniProt P12931). As to the kind of experiment: TR-FRET c-Src kinase assay. In kind it is biochemical. To be noted: ATP 50 μM; for inhibition at 0.1 µM: read-out: c-SRC % inhibition at 100 nM, 100 nM; for inhibition at 1 µM: read-out: c-SRC % inhibition at 1 μM. As for the experimental part: (§1) Compounds were screened in the TR-FRET assay for JAK2 and c-Src kinase inhibition. Ultra light poly GT (Perkin Elmer) was used as the substrate for JAK2 and c-Src with the ATP concentration of 10 μM and 50 μM, respectively. […] The dose-response curve fitting was done using GraphPad Prism software.
(In general: Time-resolved FRET reads energy transfer from a long-lived donor to a nearby acceptor.)

Another assay relates to Mda-Mb-231 cells. The assay is described as follows: Cell viability assay (XTT assay), Mda-Mb-231. In kind it is cell-based. The settings on record: Homo sapiens, 72 hrs. Here is the method: Mda-Mb-231 or A549 cells were seeded onto a 96-well micro plate. Next day compounds were added to cells and incubated for 72 hrs. Compound treatment was done in triplicates. After 72 hrs cell culture media was aspirated from the wells and XTT working solution was added and plates were incubated for 2-5 hrs. The absorbance of the samples was measured with a spectrophotometer at a wavelength of 465 nm. EC50 values were calculated using Graphpad Prism. Tumor cell lines used in the examples of the present invention were procured from ATCC. Description of the cell lines is included in the following table: […]
In general terms: Tetrazolium assays rely on reduction of a dye to a coloured formazan, in cell work by metabolically active cells.

Another assay deals with pStat3. As to the kind of experiment: In-Cell-Western blot assay for pStat3 (ICW) in A431 cells. Format: cell-based. To be noted: Homo sapiens, A-431, 2 hrs, read-out: pSTAT3 inhibition. Here is the method:
A431 cells were seeded onto a 96-well micro plate. After overnight serum starvation cells were incubated with compounds for 2 hrs. Cells were fixed with 4% paraformaldehyde in PBS and then permeabilized with 0.1% Triton X-100 in PBS (PBST). Cells were blocked with 5% BSA in PBST for 2 hrs, followed by overnight incubation with phospho Stat3 antibody. Cells were washed and incubated with europium-labeled anti-rabbit secondary antibody for 2 hrs. After washing enhancement solution was added to the wells. The micro-plate was read on the Victor instrument at the Europium setting. The Hoechst readings were used to normalize for cell number. IC50 values were calculated with the normalized europium values using Graphpad Prism.

The next assay deals with A431 cancer cell line. The assay is described as follows: Inhibition of cell growth in A431. In kind it is cell-based. The settings on record: Homo sapiens, A-431.
For a further assay, the target named is JAK2 (Homo sapiens (Human), UniProt O60674). The assay is described as follows: TR-FRET JAK2 kinase assay. To be noted: ATP 10 μM; for inhibition at 0.1 µM: read-out: JAK2 % inhibition at 100 nM, 100 nM; for inhibition at 1 µM: read-out: JAK2 % inhibition at 1 μM. In kind it is biochemical. As for the experimental part:
as §1

A further assay concerns A549 cells. The assay is described as follows: Cell viability assay (XTT assay), A549. Format: cell-based. To be noted: Homo sapiens, 72 hrs. Here is the method: Next day compounds were added to cells and incubated for 72 hrs. Compound treatment was done in triplicates. After 72 hrs cell culture media was aspirated from the wells and XTT working solution was added and plates were incubated for 2-5 hrs. […] EC50 values were calculated using Graphpad Prism. Tumor cell lines used in the examples of the present invention were procured from ATCC. Description of the cell lines is included in the following table: […]

A word on the EC50: it is the concentration at which the effect is half-maximal. A lower EC50 goes with an effect from little substance. As a reminder, the inhibition is how much of the control response was suppressed.

JAK2, sequence (O60674 whole entry): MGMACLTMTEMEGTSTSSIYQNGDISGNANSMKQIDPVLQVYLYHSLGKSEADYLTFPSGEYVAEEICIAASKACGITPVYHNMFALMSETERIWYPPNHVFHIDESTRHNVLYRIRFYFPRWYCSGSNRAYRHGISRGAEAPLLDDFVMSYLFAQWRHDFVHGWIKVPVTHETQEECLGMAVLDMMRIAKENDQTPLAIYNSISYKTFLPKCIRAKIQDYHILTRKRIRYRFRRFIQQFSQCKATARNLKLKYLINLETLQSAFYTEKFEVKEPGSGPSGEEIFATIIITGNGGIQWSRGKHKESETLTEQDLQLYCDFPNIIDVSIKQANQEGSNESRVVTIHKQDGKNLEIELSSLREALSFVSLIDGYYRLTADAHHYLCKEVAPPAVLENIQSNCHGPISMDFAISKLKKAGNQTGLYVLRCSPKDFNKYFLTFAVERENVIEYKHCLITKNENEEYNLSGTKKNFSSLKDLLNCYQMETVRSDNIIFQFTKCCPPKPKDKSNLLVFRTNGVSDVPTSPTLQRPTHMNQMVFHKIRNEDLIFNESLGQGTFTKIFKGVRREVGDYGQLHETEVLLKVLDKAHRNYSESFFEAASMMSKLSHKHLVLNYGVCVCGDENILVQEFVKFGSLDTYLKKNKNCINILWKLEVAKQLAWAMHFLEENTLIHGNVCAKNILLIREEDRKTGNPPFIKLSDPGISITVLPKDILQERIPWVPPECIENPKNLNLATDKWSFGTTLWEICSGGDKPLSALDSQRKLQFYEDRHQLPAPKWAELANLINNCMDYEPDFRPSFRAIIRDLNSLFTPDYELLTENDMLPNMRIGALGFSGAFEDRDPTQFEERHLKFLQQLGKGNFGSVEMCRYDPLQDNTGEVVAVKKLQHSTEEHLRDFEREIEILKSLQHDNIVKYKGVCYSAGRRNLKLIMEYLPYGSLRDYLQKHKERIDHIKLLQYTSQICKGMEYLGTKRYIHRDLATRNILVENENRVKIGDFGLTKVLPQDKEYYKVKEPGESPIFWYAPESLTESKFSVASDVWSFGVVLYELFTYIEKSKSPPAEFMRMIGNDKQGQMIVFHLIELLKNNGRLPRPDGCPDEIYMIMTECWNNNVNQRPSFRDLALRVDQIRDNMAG
c-Src, sequence (P12931 whole entry, looked up): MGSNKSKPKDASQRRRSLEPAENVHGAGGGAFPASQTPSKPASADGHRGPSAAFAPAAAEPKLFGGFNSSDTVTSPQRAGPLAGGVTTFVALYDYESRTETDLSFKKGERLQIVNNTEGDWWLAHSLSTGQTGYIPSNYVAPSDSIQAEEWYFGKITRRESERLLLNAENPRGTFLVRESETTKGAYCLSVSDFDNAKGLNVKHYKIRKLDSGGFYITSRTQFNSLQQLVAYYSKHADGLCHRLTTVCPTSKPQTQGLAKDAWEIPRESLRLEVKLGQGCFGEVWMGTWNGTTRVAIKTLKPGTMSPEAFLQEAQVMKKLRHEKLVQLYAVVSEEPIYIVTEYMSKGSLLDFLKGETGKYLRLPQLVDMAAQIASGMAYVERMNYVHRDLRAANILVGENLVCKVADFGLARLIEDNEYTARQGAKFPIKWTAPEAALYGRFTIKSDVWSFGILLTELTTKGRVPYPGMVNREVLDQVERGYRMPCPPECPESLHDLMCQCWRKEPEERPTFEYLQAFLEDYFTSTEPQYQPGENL

Turning to `Cc1ccc(NC(=O)c2cccc(C(F)(F)F)c2)cc1N1CCc2nc(Nc3ccc(OCCN4CCCC4)cc3)ncc2C1=O` [Compound 7, N-(4-Methyl-3-{5-oxo-2-[4-(2-pyrrolidin-1-yl-ethoxy)-phenylamino]-7,8-dihydro-5H-pyrido[4,3-d]pyrimidin-6-yl}-phenyl)-3-trifluoromethyl-benzamide], the results for the IC50 at c-Src, with pStat3 and on JAK2 were 16 nM, 450 nM and 83 nM, respectively. The EC50 in the assay with Mda-Mb-231 cells came to 3600 nM; in the assay with A431 cancer cell line, 1450 nM; in the assay with A549 cells it was 3400 nM.
Regarding `Cc1ccc(NC(=O)c2cccc(C(C)(C)C)c2)cc1N1CCc2nc(Nc3ccc(N4CCN(C)CC4)cc3)ncc2C1=O` [Compound 86], the EC50 in the assay with Mda-Mb-231 cells is 530 nM; in the assay on A431 cancer cell line, 570 nM; in the assay with A549 cells, 78 nM. Moreover, the IC50 with pStat3 is 580 nM.
With `Cc1ccc(NC(=O)c2ccc(C(F)(F)F)s2)cc1N1CCc2nc(Nc3ccc(OCCN4CCCC4)cc3)ncc2C1` [Compound 106, 5-Trifluoromethyl-thiophene-2-carboxylic acid (4-methyl-3-{2-[4-(2-pyrrolidin-1-yl-ethoxy)-phenylamino]-7,8-dihydro-5H-pyrido[4,3-d]pyrimidin-6-yl}-phenyl)-amide], the values for the IC50 at c-Src, with pStat3 and against JAK2 were 2 nM, 220 nM and 18 nM, respectively. The inhibition at 0.1 µM at c-Src worked out at 99%; on JAK2, 85%. Also, the inhibition at 1 µM was 100% at c-Src and 98% at JAK2. For the same compound, the EC50 in the assay on Mda-Mb-231 cells came to 310 nM; with A431 cancer cell line, 220 nM.
With `Cc1ccc(NC(=O)N2CCCCC2)cc1N1CCc2nc(Nc3ccc(OCCN4CCCC4)cc3)ncc2C1` [Compound 107, Piperidine-1-carboxylic acid (4-methyl-3-{2-[4-(2-pyrrolidin-1-yl-ethoxy)-phenylamino]-7,8-dihydro-5H-pyrido[4,3-d]pyrimidin-6-yl}-phenyl)-amide], the figures for the IC50 at c-Src, in the assay on pStat3 and against JAK2 were 1 nM, 120 nM and 40 nM, respectively. In addition, the inhibition at 0.1 µM at c-Src was 93%; on JAK2 it was 72%. Also, the inhibition at 1 µM on c-Src is 98%; at JAK2, 94%. Moreover, the EC50 with Mda-Mb-231 cells is 610 nM; in the assay on A431 cancer cell line, 120 nM.
Take `Cc1ccc(NC(=O)c2cccc(C(F)(F)F)c2)cc1N1CCc2nc(Nc3ccc(C(=O)N4CCN(C)CC4)nc3)ncc2C1` [Compound 132, N-(4-Methyl-3-{2-[6-(4-methyl-piperazine-1-carbonyl)-pyridin-3-ylamino]-7,8-dihydro-5H-pyrido[4,3-d]pyrimidin-6-yl}-phenyl)-3-trifluoromethyl-benzamide]: the IC50 against c-Src was 5 nM; in the assay with pStat3, 480 nM; on JAK2, 3 nM. Moreover, the EC50 with Mda-Mb-231 cells came out at 41 nM; in the assay on A549 cells, 47 nM.
As for `Cc1ccc(NC(=O)c2cccc(C(F)(F)F)c2)cc1N1CCc2nc(Nc3cccc(CN4CCN(C)CC4)c3)ncc2C1` [Compound 137, N-(4-Methyl-3-{2-[3-(4-methyl-piperazin-1-ylmethyl)-phenylamino]-7,8-dihydro-5H-pyrido[4,3-d]pyrimidin-6-yl]-phenyl)-3-trifluoromethyl-benzamide], the results for the IC50 on c-Src and in the assay with pStat3 were 7 nM and 670 nM, respectively. For the same compound, the EC50 in the assay with Mda-Mb-231 cells amounted to 74 nM; in the assay on A431 cancer cell line, 670 nM; in the assay on A549 cells it was 426 nM.
As for `Cc1ccc(NC(=O)c2cccc(C(F)(F)F)c2)cc1N1CCc2nc(Nc3ccc(S(=O)(=O)NC4CC4)cc3)ncc2C1` [Compound 165, N-{3-[2-(4-Cyclopropylsulfamoyl-phenylamino)-7,8-dihydro-5H-pyrido[4,3-d]pyrimidin-6-yl]-4-methyl-phenyl}-3-trifluoromethyl-benzamide], the IC50 against c-Src was 16 nM; in the assay with pStat3, 257 nM; at JAK2 it was 54 nM. Moreover, the inhibition at 0.1 µM at c-Src worked out at 93%; on JAK2, 74%. Besides, the inhibition at 1 µM came out at 98% on c-Src and 93% on JAK2. Further, the EC50 was 440 nM with Mda-Mb-231 cells and 320 nM in the assay on A431 cancer cell line.
With `Cc1ccc(NC(=O)c2cccc(C(F)(F)F)c2)cc1N1CCc2nc(Nc3ccc(OCCCN4CCN(C)CC4)cc3)ncc2C1=O` [Compound 180, N-[4-Methyl-3-(2-{4-[3-(4-methyl-piperazin-1-yl)-propoxy]-phenylamino}-5-oxo-7,8-dihydro-5H-pyrido[4,3-d]pyrimidin-6-yl)-phenyl]-3-trifluoromethyl-benzamide], the inhibition at 0.1 µM at c-Src is 66%; on JAK2, 67%. Moreover, the inhibition at 1 µM at c-Src worked out at 87%; at JAK2, 91%. The EC50 with Mda-Mb-231 cells is 1620 nM; in the assay on A431 cancer cell line, 1070 nM; in the assay with A549 cells, 1480 nM. In addition, in the assay with pStat3, the IC50 was determined as 140 nM.
Consider `O=C(Nc1ccc(Cl)c(N2CCc3nc(Nc4ccc(OCCN5CCCC5)cc4)ncc3C2=O)c1)c1cccc(C(F)(F)F)c1` [Compound 181, N-(4-Chloro-3-{5-oxo-2-[4-(2-pyrrolidin-1-yl-ethoxy)-phenylamino]-7,8-dihydro-5H-pyrido[4,3-d]pyrimidin-6-yl}-phenyl)-3-trifluoromethyl-benzamide], for which the inhibition at 0.1 µM at c-Src is 53%; at JAK2, 85%. Further, the inhibition at 1 µM was found to be 77% at c-Src and 93% on JAK2. The results for the EC50 with Mda-Mb-231 cells, with A431 cancer cell line and in the assay with A549 cells were 3340 nM, 1300 nM and 2540 nM, respectively.
Regarding `Cc1ccc(NC(=O)c2cccc(C(F)(F)F)c2)cc1N1CCc2nc(Nc3ccc(OCCCN4CCOCC4)cc3)ncc2C1=O` [Compound 182, N-(4-Methyl-3-{2-[4-(3-morpholin-4-yl-propoxy)-phenylamino]-5-oxo-7,8-dihydro-5H-pyrido[4,3-d]pyrimidin-6-yl}-phenyl)-3-trifluoromethyl-benzamide], the figures for the inhibition at 0.1 µM on c-Src and on JAK2 were 51% and 55%, respectively. Moreover, the inhibition at 1 µM at c-Src is 80%; on JAK2 it was 85%. Moreover, the concentration giving a half-maximal response (EC50) was 2760 nM in the assay with Mda-Mb-231 cells, 5070 nM in the assay with A431 cancer cell line and 1080 nM in the assay on A549 cells.
As to `Cc1cnc(Nc2ccc(OCCN3CCCC3)cc2)nc1Nc1cccc(S(=O)(=O)NC(C)(C)C)c1` [TG101348, reference compound], the EC50 came to 680 nM in the assay with Mda-Mb-231 cells and 1200 nM in the assay on A549 cells. Also, the IC50 in the assay with pStat3 was over 10000 nM.
